Assay results reported in patent US8822485B2, “Amino heteroaryl compounds as beta-secretase modulators and methods of use” (Amgen Inc., priority 2010, dated 2014).

What was measured:
[1] = target: BACE1 (Homo sapiens, UniProt P56817); assay: In vitro enzymatic BACE FRET assay; type: biochemical; conditions: IC50 range class; 0.2 nM enzyme, 50 nM FRET substrate, pH 4.2
Experimental: In Vitro Enzymatic BACE FRET (Fluorescence Resonance Energy Transfer) Assay (Enzyme Assay Data in Table 1)
The assay buffer used in this screen is 0.05 M acetate, pH 4.2, 10% DMSO final, 100 uM genapol (which is a nonionic detergent, below its Critical Micelle Concentration). The Beta Secretase enzyme (0.2 nM) is pre-incubated for one hour with inhibitors, typically in about 1 uL of DMSO according to a serial dilution, are added thereto. The assay is effectively started by the addition of FRET substrate (50 nM) and the combination is incubated for one hour. The FRET assay is terminated with by addition of Tris buffer, which raises the pH to neutrality, and the fluorescence is determined. The FRET substrate is a peptide with commercially available fluorophore and quencher, on opposite sides of the BACE cleavage site. Proteolytic cleavage of the FRET substrate releases quenching of fluorescence (excitation […] and […]).
Of the compounds tested, the in-vitro BACE FRET enzyme data for each of Examples 1-33, where available at the time of filing this application, is provided in Table 1.

[2] = test system: Aβ40 in conditioned medium of cells stably expressing Amyloid Precursor Protein (APP) (HEK cell); assay: In vitro BACE cell-based assay (HEK cell assay, Aβ40 sandwich ELISA); conditions: Homo sapiens, HEK293; IC50 range class; inhibition of Aβ40 after 24 h incubation
Experimental: In Vitro BACE Cell-Based Assay:
The cell-based assay measures inhibition or reduction of Aβ40 □ in conditioned medium of test compound treated cells expressing amyloid precursor protein.
Cells stably expressing Amyloid Precursor Protein (APP) were plated at a density of 40K cells/well in 96 well plates (Costar). The cells were cultivated for 24 hours at 37° C. and 5% CO2 in DMEM supplemented with 10% FBS. The test compounds were then added to cells in 10-point dose response concentrations with the starting concentration being either 100 μM or 10 μM. The compounds were diluted from stock solutions in DMSO and the final DMSO concentration of the test compounds on cells was 0.1%. After 24 h of incubation with the test compounds the supernatant conditioned media was collected and the Aβ 40 levels were determined using a sandwich ELISA. The IC50 of the compound was calculated from the percent of control or percent inhibition of Aβ40 as a function of the concentration of the test compound.
The sandwich ELISA to detect Aβ 40 was performed in 96 well microtiter plates, which were pre-treated with goat anti-rabbit IgG (Pierce). The capture and detecting antibody pair that were used to detect Aβ 40 from cell supernatants were affinity purified pAb40 (Biosource) and biotinylated 6E10 (Signet Labs Inc.), respectively. The optimal concentration for the pAb40 antibody was 3 μg/ml in Superblock/TBS (Pierce) that was supplemented with 0.05% Tween 20 (Sigma). Optimal concentration for the detection antibody 6E10-biotinylated was 0.5 μg/ml in Superblock/TBS (Pierce) that had been supplemented with 2% normal goat serum and 2% normal mouse serum.
Cellular supernatants were incubated with the capture antibody for 3 h at 4° C., followed by 3 wash steps in TBS-tween (0.05%). The detecting antibody incubation was for 2 h at 4° C., again followed by the wash steps as described previously. The final readout of the ELISA is Time-Resolved Fluorescence (counts per minute) using Delfia reagents Streptavidin-Europium and Enhancement solutions (Perkin Elmer) and the Victor 2 multilabel counter (Perkin Elmer).
Of the compounds tested, the cell based assay data for each of Examples 1-33, where available at the time of filing this application, is provided in Table 1.

BACE1, sequence (P56817 46-501, species assumed): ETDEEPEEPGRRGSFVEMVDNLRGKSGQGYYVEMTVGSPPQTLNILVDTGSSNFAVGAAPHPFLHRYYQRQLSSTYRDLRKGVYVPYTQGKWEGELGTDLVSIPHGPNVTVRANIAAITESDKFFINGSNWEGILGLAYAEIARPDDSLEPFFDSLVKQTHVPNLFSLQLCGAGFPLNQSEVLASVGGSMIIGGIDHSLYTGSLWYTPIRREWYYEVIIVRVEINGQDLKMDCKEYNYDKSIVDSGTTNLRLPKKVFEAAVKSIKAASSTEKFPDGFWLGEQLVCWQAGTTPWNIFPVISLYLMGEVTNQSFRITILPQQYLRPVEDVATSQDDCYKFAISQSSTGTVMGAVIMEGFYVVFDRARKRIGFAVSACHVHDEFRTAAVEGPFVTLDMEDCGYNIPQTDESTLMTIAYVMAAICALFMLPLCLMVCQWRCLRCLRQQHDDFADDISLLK

Cc1cccc(C(=O)N2CCCC2C)c1-c1ccc2nc(N)c(CCc3cncnc3)cc2c1 (racemic) [Example 32, (±)-(2-(2-amino-3-(2-(pyrimidin-5-yl)ethyl)quinolin-6-yl)-3-methylphenyl)(2-methylpyrrolidin-1-yl)methanone] was tested, and the IC50 [1] was under 100 nM and the IC50 [2] was under 500 nM.
For Cc1ccccc1-c1ccc2nc(N)c(C3OCCCC3c3cc(CC(C)(C)C)ncn3)cc2c1 (single isomer, unassigned) [Example 7], the IC50 [1] was under 100 nM and the IC50 [2] was 1000 to 5000 nM.
Cc1ccccc1-c1ccc2nc(N)c(C3CCCC3c3cc(C4CCCC4)ncn3)cc2c1 (centres unmarked) [Example 1, 3-(2-(6-cyclopentylpyrimidin-4-yl)cyclopentyl)-6-o-tolylquinolin-2-amine] gave an IC50 [1] of under 100 nM and an IC50 [2] of over 5000 nM.
For Cc1ccccc1-c1ccc2nc(N)c(C=Cc3cncc(C4=CCCCC4)c3)cc2c1 [Example 2, 3-(2-(5-cyclohexenylpyridin-3-yl)vinyl)-6-o-tolylquinolin-2-amine], the IC50 [1] was 100 to 1000 nM and the IC50 [2] was over 5000 nM.
Cc1ccccc1-c1ccc2nc(N)c(CCc3cncc(C4CCCCC4)c3)cc2c1 [Example 3, 3-(2-(5-cyclohexylpyridin-3-yl)ethyl)-6-o-tolylquinolin-2-amine] gave an IC50 [1] of under 100 nM and an IC50 [2] of over 5000 nM.
CCc1cncc(CCc2cc3cc(-c4ccccc4C)ccc3nc2N)c1 [Example 5, 3-(2-(5-ethylpyridin-3-yl)ethyl)-6-o-tolylquinolin-2-amine] gave an IC50 [1] of 1000 to 5000 nM and an IC50 [2] of 1000 to 5000 nM.
Cc1cccnc1-c1ccc2nc(N)c(CCc3cc(CC(C)(C)C)ncn3)cc2c1 [Example 6, 6-(3-methylpyridin-2-yl)-3-(2-(6-neopentylpyrimidin-4-yl)ethyl)quinolin-2-amine] gave an IC50 [1] of 100 to 1000 nM and an IC50 [2] of 1000 to 5000 nM.
With Cc1ccccc1-c1ccc2nc(N)c(CCc3cc(C(C)(C)C)ncn3)cc2c1 [Example 8, 3-(2-(6-tert-butylpyrimidin-4-yl)ethyl)-6-o-tolylquinolin-2-amine] the IC50 [1] was under 100 nM and the IC50 [2] was 1000 to 5000 nM.
Cc1ccccc1-c1ccc2nc(N)c(CC(C)c3cc(CC(C)(C)C)ncn3)cc2c1 (centres unmarked) [Example 9, 3-(2-(6-neopentylpyrimidin-4-yl)propyl)-6-o-tolylquinolin-2-amine] was tested, and the IC50 [1] was under 100 nM and the IC50 [2] was 500 to 1000 nM.
CCc1cc(C(C)Cc2cc3cc(-c4ccccc4C)ccc3nc2N)ncn1 (centres unmarked) [Example 10, 3-(2-(6-ethylpyrimidin-4-yl)propyl)-6-o-tolylquinolin-2-amine] showed an IC50 [1] of 100 to 1000 nM and an IC50 [2] of 1000 to 5000 nM.
With Cc1ccccc1-c1ccc2nc(N)c(COc3cc(C(F)(F)F)ncn3)cc2c1 [Example 11, 6-o-tolyl-3-((6-(trifluoromethyl)pyrimidin-4-yloxy)methyl)quinolin-2-amine] the IC50 [1] was 100 to 1000 nM and the IC50 [2] was over 5000 nM.
Cc1ccccc1-c1ccc2nc(N)c(CC(C)c3cc(C4CCCC4)ncn3)cc2c1 (centres unmarked) [Example 13, 3-(2-(6-cyclopentylpyrimidin-4-yl)propyl)-6-o-tolylquinolin-2-amine] was tested, and the IC50 [1] was under 100 nM and the IC50 [2] was 1000 to 5000 nM.
CCc1cc(OCc2cc3cc(-c4ccccc4C)ccc3nc2N)ncn1 [Example 14, 6-o-tolyl-3-((6-ethylpyrimidin-4-yloxy)methyl)quinolin-2-amine] was tested, and the IC50 [1] was over 5000 nM and the IC50 [2] was over 5000 nM.
Work on Cc1cccnc1-c1ccc2nc(N)c(CC(C)c3cc(CC(C)(C)C)ncn3)cc2c1 (centres unmarked) [Example 15, 6-(3-methylpyridin-2-yl)-3-(2-(6-neopentylpyrimidin-4-yl)propyl)quinolin-2-amine] yielded an IC50 [1] of 100 to 1000 nM and an IC50 [2] of 500 to 1000 nM.
Cc1cccnc1-c1ccc2nc(N)c(CCc3cc(C(C)(C)C)ncn3)cc2c1 [Example 16, 3-(2-(6-tert-butylpyrimidin-4-yl)ethyl)-6-(3-methylpyridin-2-yl)quinolin-2-amine] showed an IC50 [1] of 100 to 1000 nM and an IC50 [2] of 1000 to 5000 nM.
In the case of Cc1ccccc1-c1ccc2nc(N)c(CCc3cc4ccccc4[nH]3)cc2c1 [Example 17, 3-(2-(1H-indol-2-yl)ethyl)-6-o-tolylquinolin-2-amine], the IC50 [1] is reported as 1000 to 5000 nM and the IC50 [2] is reported as 500 to 1000 nM.
